In patent publication US8524899B2, “Alternative heterocycles for DNA recognition” (California Institute of Technology, priority 2003, dated 2013):

Columns and labels:
[1] = Stability at acidic pH; assay type: physicochemical
[2] = system: 32P-3′-labeled EcoRI/PvuII restriction fragment of plasmid pDR1 (sites 5′-TGTCTA-3′, 5′-TGTTTA-3′, 5′-TGTATA-3′, 5′-TGTGTA-3′); test: Quantitative DNase I footprint titration on pDR1 restriction fragment; assay type: binding
Procedure: FIG. 4 illustrates the equilibrium association constants Ka[M^−1] for Polyamide Oligomers A-C, N, Q, and P. The reported association constants are the average values obtained from three DNase I footprint titration experiments, with the standard deviation for each data set indicated in the experiments. Assays were carried out at 22° C. at pH 7.0 in the presence of 10 mM Tris-HCl, 10 mM KCl, 10 mM MgCl2, and 5 mM CaCl2 with an equilibration time of 12 h. Specificities are give in brackets under the Ka values and calculated as Ka (match)/Ka (mismatch).
To examine whether an imidazo[4,5-b]pyridine unit Ip can replace a five-membered imidazole ring Im within an eight-ring hairpin polyamide regarding DNA binding affinity and specificity, polyamide oligomer A and its related all five-membered ring hairpin oligomer N were evaluated by DNase I footprint titrations under identical conditions. Quantitative DNase I footprint titration experiments (10 mM Tris-HCl, 10 mM KCl, 10 mM MgCl2, 5 mM CaCl2, pH 7.0, 22° C., equilibration time: 12 h) were performed on a ^32P-3′-labeled EcoRI/PvuII restriction fragment of plasmid pDR1 0 (FIG. 2). This DNA fragment contains four 6-base pair binding sites which differ at one position, 5′-TGTCTA-3′,5′-TGTTTA-3′,5′-TGTATA-3′, and 5′-TGTGTA-3′. The latter one was regarded as the possible match site having a G•C base pair under the Ip/Py or Im/Py pair, respectively.
Construction of plasmid DNA. The plasmid pDR1 was constructed by hybridization of the two oligonucleotides 5′-GATCAGGCTGTC-[…]-GCTGCTGTTTATGGACG-GCTGCTGTATATGGACGG-CTGGGCGA-3′ (SEQ ID NO:1) and 5′-AGCTTCGC-[…]-[…]-3′ (SEQ ID NO:2) followed by ligation into the BamHI/HinDIII restriction fragment of pUC19 using T4 DNA ligase. The resultant plasmid was then used to transform E. coli XL-1 Blue Supercompetent cells. Ampicillin-resistant white colonies were selected from 25 mL Luria-Bertani agar plates containing […] ampicillin, treated with XGAL and IPTG solutions and grown overnight at 37° C. Cells were harvested after overnight growth at 37° C. Large-scale plasmid purification was performed with Qiagen, purification kits. The presence of the desired insert was determined by dideoxy sequencing. DNA concentrations were determined at 260 nm using the relationship 1 OD unit) 50 μg/mL duplex DNA.
Preparation of 3′-End-Labeled DNA Restriction Fragments. The plasmid pDR1 was linearized with EcoRI and PVuII and treated with the Klenow fragment of DNA […], [R-^32P]-dATP, and [R-^32P]-TTP for 3′-end labeling. The labeled 3′-fragment was purified on a 7% nondenaturing polyacrylamide gel (5% cross-linkage) and the desired 284 base pair band isolated after visualization by autoradiography. The DNA was precipitated with 2-propanol, the pellet washed, lyophilized, and resuspended in RNase-free H2O. Chemical sequencing reactions were performed according to published protocols. (Troschütz, R.; Lückel, A. Arch. Pharm., 325, 617-619, 1992.)
DNase I Footprinting. All reactions were carried out in a volume of 400 μL according to published procedures. Quantitation by storage phosphor autoradiography and determination of equilibrium association constants were as previously described. (Trauger, J. W.; Dervan, P. B. Methods Enzymol., 340, 450-466, 2001.)

[3] = system: EcoRI/PvuII restriction fragment of plasmid pPWF2 (5′-TGRACA-3′); test: Quantitative DNase I footprint titration, R•S position, plasmid pPWF2; assay type: binding
From the text: FIG. 9 illustrates the equilibrium association constants Ka[M^−1] and specificities for polyamide oligomers D-F, R, S, and V on plasmids pPWF2 and pCAB1 (R•S position).
When replacing PyPy, PyIm, and PyHp dimers with BiPy (as in oligomer D), BiIm (as in oligomer E), and BiHp constructs (as in oligomer F), respectively, the question arises whether a) the benzimidazole ring is capable of cooperating with the imidazole ring on the opposite strand of the hairpin polyamide to specifically recognize a C•G base pair according to the binding model and the general pairing rules, and b) whether the steric and electronic peculiarities of the benzimidazole ring disturb the binding ability of the adjacent heterocycle. In order to address this question for the given polyamide design, the recognition behavior of the benzimidazole-containing polyamides was probed in two of the six base pair positions R•S and X•Y of the recognition sequence (5′-TGRACA-3′ and 5′-TGGXCA-3′ for oligomers D and F; 5′-TGRCAA-3′ and 5′-TGGXAA-3′ for oligomer E; FIG. 6) and compared with the DNA-binding ability of the related all five-membered oligomers R, S, and V at the same recognition sequences.
(§1) Evaluation of the DNA recognition properties of the new ligands oligomers D, E, and F at the imidazole/benzimidazole position (referred to as R•S position) should reveal the sequence preference of the benzimidazole ring. The binding properties at the neighboring ring position (referred to as X•Y position) were expected to disclose whether the recognition capabilities of the adjacent internal five-membered ring are disturbed by the benzimidazole moiety. To examine the consequences of the ring replacement for DNA binding in terms of affinity and specificity, the benzimidazole-containing hairpin polyamides oligomers D, E, and F were evaluated by quantitative DNase I footprint titrations and the results compared to those from related oligomers R, S, and V, which were investigated under identical conditions. Quantitative DNase I footprint titration experiments (10 mm Tris-HCl, 10 mm KCl, 10 mm MgCl2, 5 mm CaCl2, pH 7.0, 22° C., equilibration time: 12 h) were performed on ^32P-3′-labeled EcoRI/PvuII restriction fragments of plasmids pPWF2 and pCAB1 (to probe the R•S position, FIG. 7); and pAU2 and pCAB2 (to probe the X•Y position, FIG. 8). Equilibrium association constants (Ka) for the polyamide oligomers at the binding sites of interest were determined as described above in Example 3.

[4] = system: EcoRI/PvuII restriction fragment of plasmid pAU2 (5′-TGGXCA-3′); test: Quantitative DNase I footprint titration, X•Y position, plasmid pAU2; assay type: binding; details: match and mismatch sites
From the text: FIG. 10 illustrates the equilibrium association constants Ka[M^−1] and specificities for polyamide oligomers D-F, R, S, and V on plasmids pAU2 and pCAB2 (X•Y position). […]
as §1, with “The binding properties at the neighboring ring position (referred to as X•Y position) were expected to disclose whether the recognition capabilities of the adjacent internal five-membered ring are disturbed by the benzimidazole moiety.” left out

[5] = system: 5′-AGWWCT-3′ (W=A, T); test: DNase I footprint titration, multiple Hz/Py pairs; assay type: binding
Procedure: FIG. 17 is a table showing the association equilibrium constant Ka[M^−1] for polyamide oligomers H and K. The reported association constants are the average values obtained from three DNase I footprint titration experiments, with the standard deviation given in parenthesis. Assays were carried out at 22° C. at pH 7.0 in the presence of 10 mM Tris-HCl, 10 mM KCl, 10 mM MgCl2, and 5 mM CaCl2 at pH 7.0.
For polyamides Im-Hz-Py-Py-γ-Im-Hz-Py-Py-β-Dp (oligomer H) and Im-Py-Hz-Py-γ-Im-Py-Hz-Py-β-Dp (oligomer K) the ability of multiple Hz/Py pairs to distinguish poly A,T sequences was tested by varying two DNA base pairs across from the Hz/Py and Py/Hz pairs (bolded in the sequences listed above) within the parent-sequence context, 5′-AGWWCT-3′, (W=A, T) and comparing the relative affinities of the resulting complexes (FIG. 16). Equilibrium association constants (Ka) for polyamide oligomers containing multiple Hp/Py pairs have been reported and are included for comparison with values presented here (FIG. 17). […] The recognition profiles of polyamide oligomers containing multiple Hz/Py pairs (oligomers H and K) are similar to those reported for multiple Hp/Py pairs.
Footprinting Experiments.—Plasmids pDHN1 and pDEH10 were constructed and 5′-radiolabeled as previously described. […]

For `CNC(=O)c1cc(NC(=O)c2cc(NC(=O)c3cc(NC(=O)c4cc(NC(=O)[C@H](N)CCNC(=O)c5cc(NC(=O)c6ccc7nc(-c8cc(NC(=O)c9nccn9C)cn8C)[nH]c7c6O)cn5C)cn4C)cn3C)cn2C)cn1C` [B], the “stability at acidic pH” value [1] was “stable”, the “selectivity of T•A over A•T” value ([2]; 5′-TGTTTA-3′ vs A•T site) was 18 fold and the “binding at C•G site” value ([2]; C•G site (5′-TGTCTA-3′), for Q concentration range up to 200 nM) was “No binding was observed”. The “lower affinity at G•C mismatch site 5′-TGTGTA-3′” value ([2]; relative to match site 5′-TGTTTA-3′) was “at least 80 fold” and the “equilibrium association constant Ka” value ([2]; site 5′-TGTTTA-3′ (T•A), pH 7.0, 22° C., equilibration 12 h) was 5.7e+08 M⁻¹.

For `CNC(=O)c1cc(NC(=O)c2ccc3nc(-c4c(O)c(NC(=O)c5nc(NC(=O)[C@H](N)CCNC(=O)c6cc(NC(=O)c7cc(NC(=O)c8nc(NC(=O)c9nccn9C)cn8C)cn7C)cn6C)cn5C)cn4C)[nH]c3c2)cn1C` [F], the “match site Ka, R•S position” value ([3]; 5′-TGRACA-3′ match site, pH 7.0, 22° C., 12 h) was 2.5e+10 M⁻¹, the “match site affinity compared with related all five-membered oligomer, R•S position” value ([3]; D vs R, F vs V) was “six to seven-fold higher” and the “single base pair mismatch specificities compared with related oligomer, R•S position” value ([3]; D vs R, F vs V) was “comparable”. For the same compound, the “binding affinities and specificities compared with related oligomers R, V, X•Y position” value [4] was “same order of magnitude”.

In the case of `CN(C)CCCNC(=O)CCNC(=O)c1cc(NC(=O)c2cc(NC(=O)c3ccc4nc(-c5nc(NC(=O)CCCNC(=O)c6cc(NC(=O)c7cc(NC(=O)c8ccc9nc(-c%10nccn%10C)[nH]c9c8O)cn7C)cn6C)cn5C)[nH]c4c3O)cn2C)cn1C` [H], the “specificity for match sequence 5′-AGTACT-3′ over 5′-AGAACT-3′ and 5′-AGATCT-3′” value [5] is reported as “greater than 14 fold”.

In the case of `CN(C)CCCNC(=O)CCNC(=O)c1cc(NC(=O)c2ccc3nc(-c4cc(NC(=O)c5nc(NC(=O)CCCNC(=O)c6cc(NC(=O)c7ccc8nc(-c9cc(NC(=O)c%10nccn%10C)cn9C)[nH]c8c7O)cn6C)cn5C)cn4C)[nH]c3c2O)cn1C` [K], the “specificity for match sequence 5′-AGTACT-3′ over 5′-AGAACT-3′ and 5′-AGATCT-3′” value [5] is reported as “poor site selectivity”.
